From patent publication US7160880B1, “Short-acting benzodiazepines” (CeNeS Limited, priority 1999, dated 2007)
Read-outs that look alike come from different tables or passages of the source.

How the values were obtained:
male Wistar rats = assay: Loss of the righting reflex (LRR) in rats; type: in vivo, rat; settings: i.v. via tail vein, dose in the range of 10–100 mg/kg
Method: The intrinsic efficacy of a compound was assessed by its ability to cause loss of the righting reflex (LRR) in rats, an effect associated with benzodiazepine full agonism.
Method: Subjects for these studies were male Wistar rats, weighing approximately 250–350 grams. To assess loss of righting reflex (LRR), animals were placed in plastic restrainers and test compounds were administered i.v. via the tail vain. Subjects were immediately removed from the restrainer and the time to onset of loss of righting reflex was recorded. LRR was defined as the loss of an animal's ability to right itself when placed in a supine position. […] Compounds producing LRR were evaluated by three measures: 1) Time to onset of LRR (as described above) 2) Time to recover from LRR. An animal met this criteria when able to right itself three consecutive times after losing its righting reflex 3) Total recovery time. Total recovery was measured by the animal's ability to walk without ataxia as well as its ability to pull itself up three consecutive times when suspended from a horizontal wire. […] The therapeutically useful dosage range for administration to mammals is 0.01 to 5.0 mg/kg of body weight.

[1] = target: benzodiazepine receptor (benzodiazepine site on the GABAA receptor complex); assay: Benzodiazepine radioligand (3H-flunitrazepam) binding assay
[2] = read-out: Benzodiazepine receptor binding Ki, 3H-flunitrazepam, brain membrane homogenates, 90 minutes at 4° C., tissue species of the tabulated values not stated

Structure (SMILES) | loss of righting reflex (LRR) (male Wistar rats) | Ki [1, 2] [nM] | Ki ([1]; compound used at 10 μM to define nonspecific binding) [nM]
COC(=O)CC[C@@H]1N=C(c2ccccc2F)c2cc(Cl)ccc2-n2c1cnc2C (racemic) [Example 1c-18] | producing loss-of-righting | 1 to 50 | 
CN1C(=O)CN=C(c2ccccc2Cl)c2cc(Cl)ccc21 [2′-chlorodiazepam, reference compound] |  |  | 0.5
COC(=O)CC[C@@H]1N=C(c2ccccc2F)c2cc(Cl)ccc2NC1=O [Example 1-1, Methyl 3-[(3S)-7-chloro-5-(2-fluorophenyl)-2-oxo-2,3-dihydro-1H-1,4-benzodiazepin-3-yl]propanoate] | producing loss-of-righting | 1 to 50 | 
COC(=O)CC[C@@H]1N=C(c2ccccc2F)c2cc(Cl)ccc2NC1=O [Example 1-2] |  | 51 to 100 | 
COC(=O)CC[C@@H]1N=C(c2ccccc2F)c2cc(Br)ccc2NC1=O [Example 1-3] | producing loss-of-righting | 1 to 50 | 
COC(=O)CC[C@H]1N=C(c2ccccc2F)c2cc(Cl)ccc2NC1=O [Example 1-4] | producing loss-of-righting | 101 to 1000 | 
O=C(CC[C@@H]1N=C(c2ccccc2F)c2cc(Cl)ccc2NC1=O)OCc1ccccc1 [Example 1-5] | producing loss-of-righting | 1 to 50 | 
O=C(CC[C@@H]1N=C(c2ccccc2F)c2cc(Cl)ccc2NC1=O)OCc1ccccc1 [Example 1-6] | producing loss-of-righting | 101 to 1000 | 
COC(=O)CC[C@@H]1N=C(c2ccccc2Cl)c2cc(Cl)ccc2NC1=O [Example 1-7] | producing loss-of-righting | 1 to 50 | 
COC(=O)CCC[C@@H]1N=C(c2ccccc2F)c2cc(Cl)ccc2NC1=O [Example 1-8] |  | 1 to 50 | 
O=C(CC[C@@H]1N=C(c2ccccn2)c2cc(Cl)ccc2NC1=O)OCc1ccccc1 [Example 1-9] | producing loss-of-righting | 101 to 1000 | 
COC(=O)CC[C@@H]1N=C(c2ccccn2)c2cc(Br)ccc2NC1=O [Example 1-10] |  | 51 to 100 | 
COC(=O)CC[C@@H]1N=C(c2ccccn2)c2cc(Cl)ccc2NC1=O [Example 1-11] | producing loss-of-righting | 101 to 1000 | 
COC(=O)CCC[C@@H]1N=C(c2ccccc2F)c2cc([N+](=O)[O-])ccc2NC1=O [Example 1-13] |  | 1 to 50 | 
CCCOC(=O)CC[C@@H]1N=C(c2ccccn2)c2cc(Cl)ccc2NC1=O [Example 1-14] |  | 101 to 1000 | 
CCOC(=O)CC[C@@H]1N=C(c2ccccn2)c2cc(Cl)ccc2NC1=O [Example 1-15] |  | 101 to 1000 | 
CCCCOC(=O)CC[C@@H]1N=C(c2ccccc2F)c2cc(Cl)ccc2NC1=O [Example 1-17] | producing loss-of-righting | 101 to 1000 | 
CCCCOC(=O)CC[C@@H]1N=C(c2ccccn2)c2cc(Cl)ccc2NC1=O [Example 1-18] |  | 101 to 1000 | 
CC(C)COC(=O)CC[C@@H]1N=C(c2ccccn2)c2cc(Cl)ccc2NC1=O [Example 1-19] |  | 101 to 1000 | 
CCOC(=O)C[C@@H]1N=C(c2ccccc2F)c2cc(Cl)ccc2NC1=O [Example 1-20] |  | 1 to 50 | 
CC(C)OC(=O)CC[C@@H]1N=C(c2ccccc2F)c2cc(Cl)ccc2NC1=O [Example 1-21] |  | 1 to 50 | 
CCN(CC)CCN1C(=O)[C@H](CCC(=O)OC)N=C(c2ccccc2F)c2cc(Cl)ccc21 [Example 1-22] |  | 101 to 1000 | 
COC(=O)CC[C@@H]1N=C(c2ccccc2F)c2cc(Cl)ccc2N(C)C1=O [Example 1-23] | producing loss-of-righting | 1 to 50 | 
CN1C(=O)[C@H](CC(=O)OCc2ccccc2)N=C(c2ccccc2F)c2cc(Cl)ccc21 [Example 1-24] |  | 51 to 100 | 
CCN(CC)CCN1C(=O)[C@H](CCC(=O)OCc2ccccc2)N=C(c2ccccc2F)c2cc(Cl)ccc21 [Example 1-25] |  | 51 to 100 | 
COC(=O)CNC1N=C(c2ccccc2Cl)c2cc(Cl)ccc2NC1=O (stereo not drawn) [Example 1-26] |  | 51 to 100 | 
COC(=O)CCNC1N=C(c2ccccc2Cl)c2cc(Cl)ccc2NC1=O (stereo not drawn) [Example 1-27] |  | 1 to 50 | 
COC(=O)CC[C@H]1C(=O)Nc2ccc(Cl)cc2C(c2ccccc2F)=[N+]1[O-] [Example 1-31] |  | 51 to 100 | 

Structure (SMILES) | loss of righting reflex (LRR) (male Wistar rats) | Ki [1, 2] [nM] | Ki ([1]; compound used at 10 μM to define nonspecific binding) [nM]
CNC1=Nc2ccc(Cl)cc2C(c2ccccc2F)=N[C@H]1CCC(=O)OC [Example 1b-1] | producing loss-of-righting | 51 to 100 | 
CCNC1=Nc2ccc(Cl)cc2C(c2ccccc2F)=N[C@H]1CCC(=O)OC [Example 1b-3] |  | 101 to 1000 | 
COC(=O)CC[C@@H]1N=C(c2ccccc2F)c2cc(Cl)ccc2N=C1NCc1ccccc1 [Example 1b-4] |  | 101 to 1000 | 
COC(=O)CC[C@@H]1N=C(c2ccccc2F)c2cc(Cl)ccc2N=C1NCc1ccncc1 [Example 1b-5] |  | > 1000 | 
COC(=O)CC[C@@H]1N=C(c2ccccc2F)c2cc(Cl)ccc2N=C1NCCc1ccncc1 [Example 1b-6] |  | 101 to 1000 | 
COC(=O)CC[C@@H]1N=C(c2ccccc2F)c2cc(Cl)ccc2N=C1NCC(C)C [Example 1b-7] |  | > 1000 | 
COC(=O)CC[C@@H]1N=C(c2ccccc2F)c2cc(Cl)ccc2N=C1NCCc1c[nH]cn1 [Example 1b-8] |  | 101 to 1000 | 
COC(=O)CC[C@@H]1N=C(c2ccccc2F)c2cc(Cl)ccc2N=C1NCCO [Example 1b-9] |  | 101 to 1000 | 
CNC1=Nc2ccc(Br)cc2C(c2ccccc2F)=N[C@H]1CCC(=O)OC [Example 1b-10] | producing loss-of-righting | 1 to 50 | 
COC(=O)CC[C@@H]1N=C(c2ccccc2F)c2cc(Cl)ccc2-n2ccnc21 [Example 1c-1] | producing loss-of-righting | 1 to 50 | 
COC(=O)CC[C@@H]1N=C(c2ccccc2F)c2cc(Cl)ccc2-n2c(C)cnc21 [Example 1c-2] | producing loss-of-righting | 1 to 50 | 
COC(=O)CC[C@@H]1N=C(c2ccccc2F)c2cc(Cl)ccc2-n2cc(C)nc21 [Example 1c-3] | producing loss-of-righting | 1 to 50 | 
COC(=O)CC[C@@H]1N=C(c2ccccc2F)c2cc(Cl)ccc2-n2cc(CO)nc21 [Example 1c-4] |  | 1 to 50 | 
COC(=O)CC[C@@H]1N=C(c2ccccc2F)c2cc(Cl)ccc2-n2c(CO)cnc21 [Example 1c-5] |  | 1 to 50 | 
COC(=O)CC[C@@H]1N=C(c2ccccn2)c2cc(Cl)ccc2-n2ccnc21 [Example 1c-6] | producing loss-of-righting | 51 to 100 | 
COC(=O)CC[C@@H]1N=C(c2ccccn2)c2cc(Cl)ccc2-n2c(C)cnc21 [Example 1c-7] | producing loss-of-righting | 51 to 100 | 
COC(=O)CC[C@@H]1N=C(c2ccccn2)c2cc(Br)ccc2-n2c(C)cnc21 [Example 1c-8, Methyl 3-[(4S)-8-bromo-1-methyl-6-(2-pyridinyl)-4H-imidazo[1,2-a][1,4]benzodiazepin-4-yl]propanoate] | producing loss-of-righting | 1 to 50 | 
COC(=O)CC[C@@H]1N=C(c2ccccn2)c2cc(Br)ccc2-n2cc(C)nc21 [Example 1c-9] |  | 1 to 50 | 
COC(=O)CC[C@@H]1N=C(c2ccccn2)c2cc(Cl)ccc2-n2cc(C)nc21 [Example 1c-10] | producing loss-of-righting | 51 to 100 | 
COC(=O)CC[C@@H]1N=C(c2ccccn2)c2cc(Cl)ccc2-n2cc(CO)nc21 [Example 1c-11] |  | 101 to 1000 | 
COC(=O)CC[C@@H]1N=C(c2ccccn2)c2cc(Cl)ccc2-n2c(CO)cnc21 [Example 1c-12] |  | 101 to 1000 | 
COC(=O)CC[C@@H]1N=C(c2ccccn2)c2cc(Cl)ccc2-n2c1nc(C)c2C [Example 1c-13] |  | 101 to 1000 | 
COC(=O)CC[C@@H]1N=C(c2ccccc2Cl)c2cc(Cl)ccc2-n2c(C)nnc21 [Example 1c-14] | producing loss-of-righting | 1 to 50 | 
COC(=O)CC[C@@H]1N=C(c2ccccc2F)c2cc(Cl)ccc2-n2c(C)nnc21 [Example 1c-15] | producing loss-of-righting | 1 to 50 | 
Cc1nnc2n1-c1ccc(Cl)cc1C(c1ccccc1F)=N[C@H]2CCC(=O)OCC(C)C [Example 1c-16] |  | 1 to 50 | 
COC(=O)CC[C@@H]1N=C(c2ccccc2F)c2cc(Cl)ccc2-n2cncc21 [Example 1c-17] | producing loss-of-righting | 101 to 1000 | 
COC(=O)CC[C@@H]1N=C(c2ccccc2F)c2cc(Cl)ccc2-n2cc(COC(C)(C)C)nc21 [Example 1c-19] |  | 1 to 50 | 
